Data reported in patent US7960393B2, “Pyrimidine derivatives useful for the treatment of diseases mediated by CRTH2” (Actimis Pharmaceuticals, Inc., priority 2002, dated 2011).

How the values were obtained:
human CRTH2 = molecular target: T1, human CRTH2 (Homo sapiens, UniProt Q9Y5Y4); experiment: Measurement of Ca2+ mobilization in the human CRTH2-transfected L1.2 cell line (Assay 1); assay type: cell-based; conditions: PGD2-induced Ca2+ mobilization in CRTH2-transfected L1.2 cells; compounds as yielded by solid phase synthesis, purity about 40 to 90%; read-out: Activity class
T1 construct: expressed in transfected cells; host or cells: L1.2 cells, pEAK expression vector, puromycin-selected
T1 sequence (Q9Y5Y4 1-395): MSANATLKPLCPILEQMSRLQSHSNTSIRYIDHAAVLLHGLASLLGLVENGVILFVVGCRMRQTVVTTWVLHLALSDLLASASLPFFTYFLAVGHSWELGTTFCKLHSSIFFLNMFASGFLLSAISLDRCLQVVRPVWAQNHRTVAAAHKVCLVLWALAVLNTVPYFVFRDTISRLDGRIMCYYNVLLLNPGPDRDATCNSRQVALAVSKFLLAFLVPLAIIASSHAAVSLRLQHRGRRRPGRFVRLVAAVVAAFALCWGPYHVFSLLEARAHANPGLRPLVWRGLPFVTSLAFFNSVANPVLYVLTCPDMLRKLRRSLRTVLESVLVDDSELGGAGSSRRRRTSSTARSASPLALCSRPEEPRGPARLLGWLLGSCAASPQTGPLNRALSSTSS
Procedure: Human CRTH2 cDNA was amplified from human eosinophil cDNA with gene specific primers containing restriction sites for cloning into pEAK vector (Edge Bio Systems). The human CRTH2 cDNA was cloned into the mammalian expression vector pEAK. This expression plasmid (40 μg) was transfected into L1.2 cells, at a cell density of 1×10^7 cells/500 μl, by using electroporation apparatus (Gene Pulser II, BioRad) at 250V/1,000 μF. One day after the transfection, puromycin (1 μg/ml, Sigma) was added into the cell culture plates. Two weeks after the transfection, grown cells were picked up for further growth.
[Measurement of Ca^2+ Mobilization in the Human CRTH2-Transfected L1.2 Cell Line] (Assay 1)
Ca^2+ loading buffer was prepared by mixing 5 μl of Fluo-3AM (2 mM in DMSO, final 1 μM, Molecular Probes) and 10 μl of pluronic F-127 (Molecular Probes) and diluting the resulting mixture in 10 ml of Ca^2+ assay buffer (20 mM HEPES pH 7.6, 0.1% BSA, 1 mM probenecid, Hanks' solution). The CRTH2 transfected cells which were prepared in Example 1 were washed with PBS, resuspended in Ca^2+ loading buffer at 1×10^7 cells/ml, and incubated for 60 min at room temperature. After incubation, cells were washed and resuspended in Ca^2+ assay buffer, then dispensed into transparent-bottom 96-well plates (#3631, Costar) at 2×10^5 cells/well. Cells were incubated with various concentrations of test compound for 5 minutes at room temperature. The emitted 480 nm fluorescence was measured on FDSS6000, a Ca^2+-measurement apparatus (Hamamatsu Photonics, Hamamatsu, Japan).
Assay results in Assay 1 are shown in Examples and tables of the Examples below. The data corresponds to the compounds as yielded by solid phase synthesis and thus to levels of purity of about 40 to 90%. For practical reasons, the compounds are grouped in four classes of activity as follows: IC50=A(< or =)10 nM<B(< or =)100 nM<C(< or =)500 nM<D

SMILES	melting point	IC50 (human CRTH2)
CN(C)c1nc(Cc2ccc(NC(=O)/C=C/c3ccccc3)cc2)nc(N2CCOCC2)c1CC(=O)O [Example 7-21]	129 to 132 °C	10 to 100 nM
CN(CC(=O)NC1CCCC1)c1nc(Cc2ccc(NCc3ccc4ccccc4c3)cc2)nc(Cl)c1CC(=O)O [Example 5-3]	> 96 °C	100 to 500 nM
CN(C)c1nc(Cc2ccc(NC(=O)/C=C/c3ccc(Cl)cc3)cc2)ncc1CC(=O)O [Example 2-11]	136 to 140 °C	< 10 nM
COc1ccccc1/C=C/C(=O)Nc1ccc(Cc2nc(N(C)C)c(CC(=O)O)c(N3CCOCC3)n2)cc1 [Example 7-27]	125 to 128 °C	< 10 nM
COc1ccc(C(=O)Nc2ccc(Cc3nc(Cl)c(CC(=O)O)c(N(C)CC(=O)NC4CCCC4)n3)cc2)cc1 [Example 1-20]	104 °C	< 10 nM
O=C(O)Cc1c(Cl)nc(Cc2ccc(NC(=O)c3ccc(C(F)(F)F)cc3)cc2)nc1N1CCCC1 [Example 1-64]	162 °C	< 10 nM
CN(C)c1nc(Cc2ccc(NC(=O)c3ccc(Oc4ccccc4)cc3)cc2)nc(N2CCCC2)c1CC(=O)O [Example 7-24]	137 to 140 °C	< 10 nM
O=C(O)Cc1c(Cl)nc(Cc2ccc(NC(=O)c3ccc(Oc4ccccc4)cc3)cc2)nc1N1CCCC1 [Example 1-55]	160 °C	< 10 nM
CN(CC(=O)NC1CCCC1)c1nc(Cc2ccc(NC(=O)c3cccc4ccccc34)cc2)nc(Cl)c1CC(=O)O [Example 1-22]	136 °C	10 to 100 nM
COCc1nc(Cc2ccc(NC(=O)OCc3ccccc3)cc2)nc(N(C)C)c1CC(=O)O [Example 9-5]	88 to 90 °C	> 500 nM
CC(=O)Nc1ccc(Cc2nc(Cl)c(CC(=O)O)c(N(C)CC(=O)NC3CCCC3)n2)cc1 [Example 1-10]	> 118 °C	> 500 nM
CN(CC(=O)NC1CCCC1)c1nc(Cc2ccc(NC(=O)CC3CCCCC3)cc2)nc(Cl)c1CC(=O)O [Example 1-13]	> 149 °C	10 to 100 nM
CCc1nc(Cc2ccc(NC(=O)OCc3ccccc3)cc2)nc(N(C)C)c1CC(=O)O [Example 9-6]	120 to 123 °C	> 500 nM
O=C(O)Cc1cnc(Cc2ccc(NC(=O)c3ccc4ccccc4c3)cc2)nc1N1CCCC1 [Example 2-31]	150 to 151 °C	< 10 nM
CN(C)c1nc(Cc2ccc(NC(=O)c3cccc(Oc4ccccc4)c3)cc2)nc(N2CCCC2)c1CC(=O)O [Example 7-23]	123 to 125 °C	10 to 100 nM
CN(C)c1nc(Cc2ccc(NC(=O)OCc3ccc(C(F)(F)F)cc3)cc2)ncc1CC(=O)O [Example 9-8]	91 to 93 °C	< 10 nM
CN(CC(=O)NC1CCCC1)c1nc(Cc2ccc(NC(=O)c3ccccn3)cc2)nc(Cl)c1CC(=O)O [Example 1-2]	> 135 °C	> 500 nM
CC(C)NC(=O)CN(C)c1nc(Cc2ccc(NC(=O)c3ccc4ccccc4c3)cc2)nc(Cl)c1CC(=O)O [Example 1-7]	181 °C	< 10 nM
CN(CC(=O)NC1CCCC1)c1nc(Cc2ccc(NC(=O)c3ccc4ccccc4c3)cc2)nc(Cl)c1CC(=O)O [Example 1-62]	> 176 °C	< 10 nM
COCCN(C)c1nc(Cc2ccc(NC(=O)c3ccc4ccccc4c3)cc2)nc(Cl)c1CC(=O)O [Example 3-5]	144 °C	< 10 nM
COCc1nc(Cc2ccc(NC(=O)c3ccc(C(F)(F)F)cc3)cc2)nc(N(C)C)c1CC(=O)O [Example 8-7]	126 to 128 °C	< 10 nM
COc1cccc(C(=O)Nc2ccc(Cc3nc(Cl)c(CC(=O)O)c(N(C)C)n3)cc2)c1 [Example 1-48]	> 75 °C	< 10 nM
CN(C)c1nc(Cc2ccc(NC(=O)c3cccc(Cl)c3Cl)cc2)nc(Cl)c1CC(=O)O [Example 1-43]	101 °C	100 to 500 nM

SMILES	melting point	IC50 (human CRTH2)
COc1ccc(/C=C/C(=O)Nc2ccc(Cc3nc(N(C)C)c(CC(=O)O)c(N4CCOCC4)n3)cc2)cc1 [Example 7-25]	192 to 195 °C (dec.)	< 10 nM
O=C(O)Cc1cnc(Cc2ccc(NC(=O)c3ccc(F)cc3)cc2)nc1N1CCCC1 [Example 2-29]	143 to 145 °C	< 10 nM
CN(C)c1nc(Cc2ccc(NC(=O)c3ccc(Cl)c(Cl)c3)cc2)nc(Cl)c1CC(=O)O [Example 1-34]	> 168 °C	< 10 nM
CN(C)c1nc(Cc2ccc(NC(=O)c3cccc(Cl)c3)cc2)ncc1CC(=O)O [Example 2-15]	111 to 113 °C	10 to 100 nM
CN(CC(=O)N1CCCC1)c1nc(Cc2ccc(NC(=O)c3ccc4ccccc4c3)cc2)nc(Cl)c1CC(=O)O [Example 1-3]	177 °C	< 10 nM
CN(CC(=O)NC1CCCC1)c1nc(Cc2ccc(NC(=O)c3ccc(Cl)c(Cl)c3)cc2)nc(Cl)c1CC(=O)O [Example 1-19]	144 °C	< 10 nM
CN(C)c1nc(Cc2ccc(NC(=O)c3cc(Cl)cc(Cl)c3)cc2)nc(Cl)c1CC(=O)O [Example 1-46]	> 99 °C	< 10 nM
CN(CC(=O)NC1CCCC1)c1nc(Cc2ccc(NC(=O)c3cc4ccccc4o3)cc2)nc(Cl)c1CC(=O)O [Example 1-25]	118 °C	< 10 nM
CN(C)c1nc(Cc2ccc(NC(=O)/C=C/c3ccccc3)cc2)ncc1CC(=O)O [Example 2-10]	135 to 140 °C	< 10 nM
CN(CC(=O)NC1CCCC1)c1nc(Cc2ccc(NC(=O)Cc3ccc4c(c3)OCO4)cc2)nc(Cl)c1CC(=O)O [Example 1-29]	> 120 °C	100 to 500 nM
CN(C)c1nc(Cc2ccc(NC(=O)c3ccc(-c4ccccc4)cc3)cc2)nc(N2CCCC2)c1CC(=O)O [Example 7-16]	224 to 226 °C	10 to 100 nM
CC(C)Oc1ccc(C(=O)Nc2ccc(Cc3nc(Cl)c(CC(=O)O)c(N4CCCC4)n3)cc2)cc1 [Example 1-56]	156 °C	< 10 nM
COc1ccc(C(=O)Nc2ccc(Cc3nc(Cl)c(CC(=O)O)c(N(C)C)n3)cc2)cc1OC [Example 1-38]	> 95 °C	10 to 100 nM
CN(C)c1nc(Cc2ccc(NC(=O)c3ccc(F)c(F)c3)cc2)nc(Cl)c1CC(=O)O [Example 1-45]	> 94 °C	< 10 nM
CN(CC(=O)NC1CCCC1)c1nc(Cc2ccc(NC(=O)c3ccco3)cc2)nc(Cl)c1CC(=O)O [Example 1-11]	> 119 °C	100 to 500 nM
CN(C)c1nc(Cc2ccc(NC(=O)OCc3ccccc3)cc2)ncc1CC(=O)O [Example 9-1, [2-(4-{[(Benzyloxy)carbonyl]amino}benzyl)-4-(dimethylamino)pyrimidin-5-yl]acetic acid]	101 to 104 °C	10 to 100 nM
CN(CC(=O)NC1CCCC1)c1nc(Cc2ccc(NC(=O)C3CC3)cc2)nc(Cl)c1CC(=O)O [Example 1-6]	> 146 °C	> 500 nM
O=C(O)Cc1cnc(Cc2ccc(NC(=O)c3ccc(C(F)(F)F)cc3)cc2)nc1N1CCCC1 [Example 2-30]	156 to 158 °C (dec.)	< 10 nM
CN(C)c1nc(Cc2ccc(NC(=O)c3ccccc3-c3ccccc3)cc2)nc(N2CCCC2)c1CC(=O)O [Example 7-14]	132 to 134 °C	> 500 nM
CN(C)c1nc(Cc2ccc(NC(=O)c3ccc(C(F)(F)F)cc3)cc2)nc(N2CCOCC2)c1CC(=O)O [Example 7-20]	212 to 213 °C (dec.)	10 to 100 nM
CN(C)c1nc(Cc2ccc(NC(=O)c3ccc(Cl)c(Cl)c3)cc2)ncc1CC(=O)O [Example 2-8]	140 °C	< 10 nM
CCCC(=O)Nc1ccc(Cc2ncc(CC(=O)O)c(N3CCCC3)n2)cc1 [Example 2-36]	130 to 133 °C	100 to 500 nM
